From patent publication US20140140962A1, “VIRUSES MODIFIED WITH UNNATURAL MOIETIES AND METHODS OF USE THEREOF” (priority 2011, published 2014)

How the values were obtained:
[1] = test system: HEK 293 cells; assay: Plaque forming assay (infectivity); type: cell-based; conditions: inferred from plaque assays, even at high concentration
Procedure: Dulbecco's modified Eagle's medium (DMEM), RPMI 1640, penicillin/streptomycin and 0.5% trypsin-EDTA were purchased from GIBCO (Grand Island, N.Y.). RPMI 1640 minus folic acid was obtained from Sigma. Fetal calf serum (FCS) and bovine calf serum (BCS) was purchased from HyClone (Logan, Utah). 293 cells were maintained in DMEM supplemented with 10% BCS, 2 mM glutamine, 100 U/mL penicillin, 100 μg/mL streptomycin. 4T1 cells (ATCC) were maintained in RPMI 1640 medium containing 10% FCS, 2 mM L-glutamine, 100 U/mL penicillin, and 100 μg/mL streptomycin. For 4T1 cells grown without folate, RPMI 1640 minus folic acid was supplemented with 10% FCS, 0.3 mg/mL L-glutamine, 2 mg/mL sodium bicarbonate, 100 U/mL penicillin, 100 μg/mL streptomycin. All cells were maintained in 100×20 mm tissue culture dishes obtained from BD biosciences (Franklin Lakes, N.J.) at 37° C. and 5% CO2. HEK 293 cells in […] culture plates were infected with 400 μL of azide labeled virus particles at concentrations of 10^3 particles/mL. The plates were overlaid with complete media containing 2.8% bactoagar and 10% BCS. […] The plaques were counted within a day after the final overlay.
HEK 293 cells cultivated in 6 mL culture plates were infected with 400 μL of azide labeled virus particles at concentrations of 10^3 particles/ml. […] The plaques were counted within a day after the final overlay.

[2] = test system: cancer stem cell related genes (Oct4, Sox2, Nanog, and c-Myc); conditions: 3 unrelated invasive colon cancer cell lines; cited from earlier work
[3] = test system: drug resistant cancer cell lines; conditions: cited from earlier work

SMILES: [N-]=[N+]=NCC[C@H](N)C(=O)O [Aha, Azidohomoalanine]
- toxicity to the cells [1]: not toxic to the cells

SMILES: CC(=O)O[C@@]12CO[C@@H]1C[C@H](O)[C@@]1(C)C(=O)[C@H](OC(=O)C3CC3)C3=C(C)[C@@H](OC(=O)[C@H](O)[C@H](C=C(C)C)NC(=O)OC(C)(C)C)C[C@@](O)([C@@H](OC(=O)c4ccccc4)[C@H]21)C3(C)C [SB-T-1214]
- inhibition of cancer stem cell related genes [2]: substantial inhibition
- cytotoxicity against drug resistant cancer cell lines [3]: significantly improved cytotoxicity
